System: CT-26 MSS colon carcinoma
Test: Syngeneic murine colon carcinoma BALB/c model using MSS cell line CT-26, survival
Assay type: in vivo, BALB/c mice
Conditions: IP twice a week: elraglusib 70 mg/kg, anti-PD-1 10 mg/kg, anti-PD-L1 10 mg/kg
Description: The experimental in vivo protocol (Protocol #19-01-003) was approved by the Institutional Animal Care and Use Committee of Brown University (Providence, RI, USA). Six to 7 weeks-old female BALB/c mice (RRID: IMSR_JAX:000651) were purchased from Taconic. 50,000 cells were suspended in 50 μL ice-cold PBS and 50 μL Matrigel (Catalog # 354234, Corning, New York, USA), and 100 uL was injected subcutaneously into the rear flanks. Once tumor volume reached at least 100 mm^3, mice were randomly assigned to one of seven groups (3 mice/group): Control (isotype), elraglusib, elraglusib+Isotype, anti-PD-1, anti-PD-L1, elraglusib+anti-PD-1, and elraglusib+anti-PD-L1. All treatments were delivered by IP injection on the following dosing schedule: Isotype (70 mg/kg, twice a week), elraglusib (70 mg/kg, twice a week), anti-PD-1 (10 mg/kg, twice a week), anti-PD-L1 (10 mg/kg, twice a week). The treatment continued until mice developed signs of discomfort from excessive tumor growth. Mice were weighed once a week to monitor signs of drug toxicity. The length (L) and width (W) of the masses were measured three times per week with a digital caliper, and the tumor volume was calculated by applying the formula: 0.5LW2. Collection of whole blood and serum was performed by cardiac puncture and sent to Antech GLP for blood cell count and chemistry tests, or in-house cytokine profiling. […]

## Cn1cc(C2=C(c3coc4ccc(F)cc34)C(=O)NC2=O)c2cc3c(cc21)OCO3 [elraglusib, 3-(5-fluorobenzofuran-3-yl)-4-(5-methyl-5H-[1,3]dioxolo[4,5-f]indol-7-yl)-1H-pyrrole-2,5-dione]
  survival (Kaplan-Meier) as compared to the control: statistically significant improved survival

From patent publication US20260256741A1, “ANTICANCER MALEIMIDE DERIVATIVES FOR USE WITH IMMUNE CHECKPOINT BLOCKADE” (BROWN UNIVERSITY, priority 2022, published 2026)
